From PMC7317212 (Chemmedchem, 2020)

Tests used:
[1] = target: T1, mGAT4 (Mus musculus, UniProt P31650); test: GABA uptake inhibition at mGAT4 with varied preincubation time; assay type: cell-based
T1 construct: expressed in transfected cells; host or cells: HEK293
T1 sequence (P31650 1-627): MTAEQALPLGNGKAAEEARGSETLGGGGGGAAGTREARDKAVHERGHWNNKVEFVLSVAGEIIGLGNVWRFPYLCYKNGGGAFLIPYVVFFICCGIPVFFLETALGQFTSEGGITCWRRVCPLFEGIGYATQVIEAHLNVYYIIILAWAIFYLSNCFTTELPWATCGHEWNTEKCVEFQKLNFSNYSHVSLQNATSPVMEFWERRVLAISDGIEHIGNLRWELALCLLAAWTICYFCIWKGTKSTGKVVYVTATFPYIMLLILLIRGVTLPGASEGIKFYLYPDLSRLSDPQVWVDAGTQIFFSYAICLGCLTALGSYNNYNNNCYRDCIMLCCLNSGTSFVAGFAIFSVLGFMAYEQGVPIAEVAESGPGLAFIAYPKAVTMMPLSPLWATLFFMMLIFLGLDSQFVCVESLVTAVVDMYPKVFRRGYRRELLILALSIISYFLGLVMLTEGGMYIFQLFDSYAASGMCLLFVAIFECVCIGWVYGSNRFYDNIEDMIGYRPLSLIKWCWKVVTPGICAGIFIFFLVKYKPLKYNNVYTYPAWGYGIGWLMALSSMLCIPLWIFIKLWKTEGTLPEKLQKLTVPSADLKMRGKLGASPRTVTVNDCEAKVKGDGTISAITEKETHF

[2] = target: T1, mGAT4; test: [^3H]GABA uptake assay, HEK293 cells expressing mGAT4; assay type: cell-based; details: [^3H]GABA uptake; pIC50±SEM
Summary of the method: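 HEK293 cells expressing mouse GATs preincubated 25 min at 37 °C with compound in Krebs buffer pH 7.2, then [3H]GABA added: 8 nM plus 32 nM unlabeled for 4 min (mGAT1/3/4), 20 nM plus 20 nM for 10 min (mGAT2). Filtration, scintillation counting; nonspecific uptake with 10 mM (mGAT1/3/4) or 100 mM GABA (mGAT2); pIC50.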

IC50 ([1]; Experiment No. 1, preincubation time 10 min, read-out: pIC50 mGAT4 (converted)): 1350 nM | IC50 ([1]; Experiment No. 1, preincubation time 25 min, read-out: pIC50 mGAT4 (converted)): 1050 nM | IC50 ([1]; Experiment No. 1, preincubation time 60 min, read-out: pIC50 mGAT4 (converted)): 912 nM | IC50 ([1]; Experiment No. 2, preincubation time 10 min, read-out: pIC50 mGAT4 (converted)): 2690 nM | IC50 ([1]; Experiment No. 2, preincubation time 25 min, read-out: pIC50 mGAT4 (converted)): 1860 nM | IC50 ([1]; Experiment No. 2, preincubation time 60 min, read-out: pIC50 mGAT4 (converted)): 1230 nM | IC50 ([1]; Experiment No. 3, preincubation time 10 min, read-out: pIC50 mGAT4 (converted)): 2690 nM | IC50 ([1]; Experiment No. 3, preincubation time 25 min, read-out: pIC50 mGAT4 (converted)): 1480 nM | IC50 ([1]; Experiment No. 3, preincubation time 60 min, read-out: pIC50 mGAT4 (converted)): 1660 nM | IC50 ([1]; Experiment No. 4, preincubation time 25 min, read-out: pIC50 mGAT4 (converted)): 2000 nM | IC50 ([1]; Experiment No. 4, preincubation time 60 min, read-out: pIC50 mGAT4 (converted)): 617 nM | IC50 ([1]; Experiment No. 5, preincubation time 25 min, read-out: pIC50 mGAT4 (converted)): 1580 nM | IC50 ([1]; Experiment No. 5, preincubation time 60 min, read-out: pIC50 mGAT4 (converted)): 1260 nM | IC50 ([1]; Experiment No. 6, preincubation time 25 min, read-out: pIC50 mGAT4 (converted)): 1380 nM | IC50 ([1]; Experiment No. 6, preincubation time 60 min, read-out: pIC50 mGAT4 (converted)): 1020 nM | Normalized pIC50 mGAT4 ([1]; preincubation time 10 min, experiments 1-3, relative to 25 min = 100.00): 97.98 | IC50 ([1]; preincubation time 10 min, experiments 1-3, read-out: Average pIC50 mGAT4 (converted)): 2140 nM | Normalized pIC50 mGAT4 ([1]; preincubation time 25 min, experiments 1-3 (reference)): 100.00 | IC50 ([1]; preincubation time 25 min, experiments 1-3, read-out: Average pIC50 mGAT4 (converted)): 1410 nM | Normalized pIC50 mGAT4 ([1]; preincubation time 25 min, experiments 4-6 (reference)): 100.00 | IC50 ([1]; preincubation time 25 min, experiments 4-6, read-out: Average pIC50 mGAT4 (converted)): 1620 nM | Normalized pIC50 mGAT4 ([1]; preincubation time 60 min, experiments 1-3, relative to 25 min = 100.00): 101.08 | IC50 ([1]; preincubation time 60 min, experiments 1-3, read-out: Average pIC50 mGAT4 (converted)): 1230 nM | Normalized pIC50 mGAT4 ([1]; preincubation time 60 min, experiments 4-6, relative to 25 min = 100.00): 104.26 | IC50 ([1]; preincubation time 60 min, experiments 4-6, read-out: Average pIC50 mGAT4 (converted)): 933 nM | IC50 [2]: 1700 nM
SMILES: COc1ccc(C(OCCN2CCCC(C(=O)O)C2)(c2ccc(C=O)cc2)c2ccc(OC)cc2)cc1 (racemic) [5 a, rac‐ 1‐{2‐[(4‐Formylphenyl)bis(4‐methoxyphenyl)methoxy]ethyl}piper‐idine‐3‐carboxylic acid]
